Reference: patent US9375000B2, “Pesticidal arylpyrrolidines” (Bayer Intellectual Property GmbH, priority 2011, dated 2016)

Legend:
Assay type in all cases: in vivo
[1] = system: Tobacco Cutworm (Spodoptera litura) Larvae; assay: Tobacco cutworm (Spodoptera litura) larvae, sweet potato leaf dip test; conditions: active compound concentration 4 ppm; dead larvae after 7 days
Protocol: (§1) Unless not mentioned otherwise, the test solutions were prepared as follows:
(§2) Solvent: 3 parts by weight Dimethylformamide
(§3) Emulsifier: 1 part by weight Polyoxyethylene alkyl phenyl ether
(§4) In order to make an appropriate formulation of an active compound, 1 part by weight of the active compound is mixed with the above mentioned amount of solvent and emulsifier and the mixture is diluted with water to a prescribed concentration. Ammonium salt or ammonium salt and penetration enhancer in a dosage of 1000 ppm are added to the desired concentration if necessary.
Leaves of sweet potato were immersed in the test solution at the appropriate concentration, and the leaves were dried in air. The leaves were then placed in a petri dish having a diameter of 9 cm, and ten Spodoptera litura at third instar larvae were released therein. The petri dishes were placed in a temperature-controlled chamber at 25° C. After 2 days and 4 days more sweet potato leaves were added. After 7 days, the number of dead larvae was counted to calculate the insecticidal activity. An insecticidal activity of 100% means that all larvae were killed, whereas an insecticidal activity of 0% means that no larva was killed. In the current test, the results of two petri dishes for each treatment were averaged.

[2] = system: Cucurbit Leaf Beetle (Aulacophora femoralis); assay: Cucurbit leaf beetle (Aulacophora femoralis) cucumber leaf dip test; conditions: after 7 days
In short: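 Cucumber leaves dipped in compound formulated with DMF and polyoxyethylene alkyl phenyl ether, diluted in water, with ammonium salt or ammonium salt plus penetration enhancer at 1000 ppm added if necessary; dried leaves placed on sterilized soil with five second-instar larvae. Kept at 25° C; larval mortality counted after 7 days.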

[3] = system: Larvae of Spodoptera litura; assay: Larvae of Spodoptera litura, method using artificial feeds; conditions: artificial feed, after 7 days
In short: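 Compound formulated in dimethylformamide with polyoxyethylene alkyl phenyl ether emulsifier, water-diluted and poured onto artificial diet. Five 3rd-instar Spodoptera litura larvae per cup, held at 25° C and 50-60% humidity. Mortality after 7 days expressed as pesticidal ratio.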

Thrips palmi = Thrips palmi spray test (THRIPL); conditions: after 6 days
Protocol: as §1, §2, §3, §4
The compound solutions are sprayed to a cucumber seedling (Cucumis sativus). After drying, the treated plant is placed in a plastic stand. About 100 thrips-eggs (Thrips palmi) on a piece of filter paper are attached to the plant and covered with a cage to keep 100% humidity. The plant is kept in a room at 23° C. After 6 days activity in % is evaluated by feeding damage degree. An insecticidal activity of 100 means that there was no feeding damage, whereas an insecticidal activity of 0% means that there is no difference to the untreated control.

[4] = system: Two-Spotted Spider Mite (Tetranychus urticae); assay: Two-spotted spider mite (Tetranychus urticae) spray test on kidney bean; conditions: after 7 days
In short: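 Kidney bean plants at the two-leaf stage carried 50-100 adult mites and were sprayed one day later with compound in DMF/polyoxyethylene alkyl phenyl ether diluted in water. Ammonium salt and penetration enhancer at 1000 ppm were added if needed. Acaricidal activity (% mites killed) was scored after 7 days in a greenhouse.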

[5] = active compound concentration 20 ppm
[6] = active compound concentration 4 ppm
[7] = active compound concentration 100 ppm

Structure (SMILES) | insecticidal activity [1] [%] | insecticidal activity [2, 5] [%] | insecticidal activity (pesticidal ratio) [3, 6] [%] | insecticidal activity (by feeding damage degree) (Thrips palmi; [5]) [%] | insecticidal activity [2, 6] [%] | acaricidal activity [4, 6] [%] | insecticidal activity (pesticidal ratio) [3, 5] [%] | acaricidal activity [4, 5] [%] | insecticidal activity (by feeding damage degree) (Thrips palmi; [7]) [%] | acaricidal activity [4, 7] [%]
CCC(=O)NCc1ccc(N2CCC(c3cc(F)c(F)c(F)c3)(C(F)(F)F)C2O)nc1C(F)(F)F (mixture of isomers) [A3-189] | 80 | 100 |  |  |  |  |  |  |  | 
O=C(NCc1ccc(N2CCC(c3cc(F)c(F)c(F)c3)(C(F)(F)F)C2O)nc1C(F)(F)F)C1CC1 (mixture of isomers) [A3-192] | 100 | 100 |  |  |  |  |  |  |  | 
CCC(=O)NCc1ccc(N2CCC(c3cc(C(F)(F)F)cc(C(F)(F)F)c3)(C(F)(F)F)C2O)cc1Br (centres unmarked) [A1-217] |  |  | 100 | 90 | 100 | 100 |  |  |  | 
O=C(NCc1ccc(N2CCC(c3cc(C(F)(F)F)cc(C(F)(F)F)c3)(C(F)(F)F)C2O)cc1Br)C1CC1 (centres unmarked) [A1-220] |  |  | 100 | 90 | 100 | 100 |  |  |  | 
CCC(=O)NCc1ccc(N2CCC(c3cc(Br)cc(Br)c3)(C(F)(F)F)C2O)cc1C(F)(F)F (centres unmarked) [A1-250] |  | 100 | 100 | 90 | 100 | 100 | 100 | 100 |  | 
CCC(=O)NCc1ccc(N2CCC(c3cc(F)cc(C(F)(F)F)c3)(C(F)(F)F)C2O)cc1C(F)(F)F (centres unmarked) [A1-316] |  | 100 | 100 | 90 | 100 | 100 | 100 | 100 |  | 
O=C(NCc1ccc(N2CCC(c3cc(F)cc(C(F)(F)F)c3)(C(F)(F)F)C2O)cc1C(F)(F)F)C1CC1 (centres unmarked) [A1-319] |  | 100 | 100 | 90 | 100 | 100 | 100 | 100 |  | 
O=C(NCc1ccc(N2CCC(c3cc(Cl)c(F)c(Cl)c3F)(C(F)(F)F)C2O)cc1Br)C1CC1 (centres unmarked) [A1-433] |  |  | 100 | 90 | 100 | 100 |  |  |  | 
O=C(CC1CC1)NCc1ccc(N2CCC(c3cc(Cl)cc(Cl)c3)(C(F)(F)F)C2O)nc1C(F)(F)F (centres unmarked) [A3-6] |  | 100 | 100 | 90 | 100 | 100 | 100 | 100 |  | 
CS(=O)(=O)CC(=O)NCc1ccc(N2CCC(c3cc(Cl)cc(Cl)c3)(C(F)(F)F)C2O)nc1C(F)(F)F (centres unmarked) [A3-11] |  | 100 | 100 | 98 | 100 | 100 | 100 | 100 |  | 
O=C(CC(F)(F)F)NCc1ccc(N2CCC(c3cc(Cl)c(Cl)c(Cl)c3)(C(F)(F)F)C2O)nc1C(F)(F)F (centres unmarked) [A3-18] |  | 100 | 100 | 98 | 100 | 100 | 100 | 100 |  | 
CS(=O)(=O)CC(=O)NCc1ccc(N2CCC(c3cc(Cl)cc(C(F)(F)F)c3)(C(F)(F)F)C2O)nc1C(F)(F)F (centres unmarked) [A3-275] |  | 100 | 100 | 98 | 100 | 100 | 100 | 100 |  | 
O=C(NCc1ccc(N2CCC(c3cc(Cl)cc(Cl)c3F)(C(F)(F)F)C2O)nc1C(F)(F)F)C1CC1 (centres unmarked) [A3-348] |  |  | 100 | 90 | 100 | 100 |  |  |  | 
CCC(=O)NCc1cc(F)c(N2CCC(c3cc(C(F)(F)F)cc(C(F)(F)F)c3)(C(F)(F)F)C2O)nc1Cl (centres unmarked) [A3-378] |  |  | 100 |  | 100 |  |  |  | 90 | 98
CCC(=O)NCc1cnc(N2CCC(c3cc(Cl)cc(Cl)c3)(C(F)(F)F)C2O)nc1C(F)(F)F (centres unmarked) [A4-2] | 100 |  |  |  |  |  |  |  |  | 
Cc1nc(N2CCC(c3cc(Cl)c(Cl)c(Cl)c3)(C(F)(F)F)C2O)ncc1CNC(=O)C1CC1 (centres unmarked) [A4-49] |  | 100 | 100 | 98 |  | 98 | 100 |  |  | 
O=C(NCc1cnc(N2CCC(c3cc(Cl)c(Cl)c(Cl)c3)(C(F)(F)F)C2O)nc1C(F)F)C1CC1 (centres unmarked) [A4-219] |  |  | 100 | 90 | 100 | 100 |  |  |  | 
O=C(CC(F)(F)F)NCc1cnc(N2CCC(c3cc(Cl)c(Cl)c(Cl)c3)(C(F)(F)F)C2O)nc1C(F)F (centres unmarked) [A4-221] |  |  | 100 | 90 | 100 | 100 |  |  |  | 
CCC(=O)NCc1cnc(N2CCC(c3cc(C(F)(F)F)cc(C(F)(F)F)c3)(C(F)(F)F)C2O)cc1C(F)(F)F (centres unmarked) [A5-24] |  | 100 | 100 | 90 | 100 |  | 100 | 100 |  | 
O=C(CC(F)(F)F)NCc1cnc(N2CCC(c3cc(C(F)(F)F)cc(C(F)(F)F)c3)(C(F)(F)F)C2O)cc1C(F)(F)F (centres unmarked) [A5-29] |  | 100 | 100 | 90 | 100 |  | 100 | 100 |  | 
CS(=O)(=O)CC(=O)NCc1cnc(N2CCC(c3cc(C(F)(F)F)cc(C(F)(F)F)c3)(C(F)(F)F)C2O)cc1C(F)(F)F (centres unmarked) [A5-33] |  | 100 | 100 | 90 | 100 |  | 100 | 98 |  | 
O=C(NCc1ccc(N2CC(c3cc(Cl)c(Cl)c(Cl)c3)(C(F)(F)F)CC2O)nc1C(F)(F)F)C1CC1 (centres unmarked) [A′3-16] | 100 | 100 |  |  |  |  |  |  |  | 
